In assay [1] the target is T1, crenactin (Pyrobaculum calidifontis, UniProt A3MWN5).
T1 construct: gene cren-1; full length 1-432, N-terminal His6-SUMO tag cleaved by SENP1; E. coli C41(DE3), codon-optimised gene; double helical filament (homopolymer); model residues 5-430
The assay can be described thus: cryoEM helical reconstruction, […] A. The following applies: filament polymerised with 2 mM ATP and 4 mM MgCl2, 50 mM NH4HCO3, 20 mM KCl, on ice; ATPase active site. Type of assay: binding.

The target of assay [2] is T1, crenactin. The assay can be described thus: […] degree light scattering, polymerisation. Type of assay: biochemical. The following applies: 3 uM crenactin, 2 mM ATP, 4 mM MgCl2, 50 mM NH4HCO3, 50 mM NaCl, 8% PEG 8000, 25 C.

T1 sequence (A3MWN5 whole entry, the tested form may be a part): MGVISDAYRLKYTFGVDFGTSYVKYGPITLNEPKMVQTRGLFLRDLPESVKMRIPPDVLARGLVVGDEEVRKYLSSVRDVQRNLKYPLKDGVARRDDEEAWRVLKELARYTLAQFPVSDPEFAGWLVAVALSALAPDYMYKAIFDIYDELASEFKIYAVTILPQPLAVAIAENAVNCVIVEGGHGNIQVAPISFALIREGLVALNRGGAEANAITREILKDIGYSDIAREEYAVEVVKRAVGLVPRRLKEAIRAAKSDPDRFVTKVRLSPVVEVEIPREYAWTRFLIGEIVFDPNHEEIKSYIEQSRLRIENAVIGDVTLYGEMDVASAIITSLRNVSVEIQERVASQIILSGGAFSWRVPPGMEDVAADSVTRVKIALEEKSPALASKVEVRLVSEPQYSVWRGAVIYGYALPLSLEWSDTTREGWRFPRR

As to `Nc1ncnc2c1ncn2[C@@H]1O[C@H](COP(=O)(O)OP(=O)(O)O)[C@@H](O)[C@H]1O` [ADP], the “cryoEM helical reconstruction, 3.8 A” value on crenactin [1] was “The cryoEM density for the ADP nucleotide is superimposed”. In the case of `Nc1ncnc2c1ncn2[C@@H]1O[C@H](COP(=O)(O)OP(=O)(O)OP(=O)(O)O)[C@@H](O)[C@H]1O` [ATP], the “90 degree light scattering, polymerisation” value on crenactin [2] is given as “Addition of ATP to crenactin resulted in an increase of scattering”.

The values are drawn from PMC5173319, “Crenactin forms actin-like double helical filaments regulated by arcadin-2” (eLife, 2016).
